The values that follow come from patent US9701711B2, “Modulators of protease activated receptors” (THE UNIVERSITY OF QUEENSLAND, priority 2010, dated 2017).

Values joined by “and” are separate entries in the source; they are usually repeats but may differ in a detail not shown here. Equal entries are not always repeated.

The first assay has as its target T1, PAR2 (Homo sapiens, UniProt P55085).
T1 sequence (P55085 26-397): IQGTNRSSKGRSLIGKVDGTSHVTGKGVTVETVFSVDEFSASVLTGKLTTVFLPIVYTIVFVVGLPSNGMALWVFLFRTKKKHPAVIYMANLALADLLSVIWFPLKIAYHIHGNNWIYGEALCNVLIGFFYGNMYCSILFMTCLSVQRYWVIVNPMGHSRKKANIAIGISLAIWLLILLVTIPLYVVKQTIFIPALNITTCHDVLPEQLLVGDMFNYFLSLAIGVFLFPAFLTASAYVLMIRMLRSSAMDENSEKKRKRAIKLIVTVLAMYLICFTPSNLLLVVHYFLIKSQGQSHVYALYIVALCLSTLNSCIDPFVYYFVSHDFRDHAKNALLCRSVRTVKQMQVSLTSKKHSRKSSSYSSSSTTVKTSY
Description: PAR2 activation (agonist) by intracellular calcium mobilisation in HT29 cells. It counts as cell-based. Conditions: EC50, agonist or partial agonist of Ca2+ release in HT29 cells, Fluo-3 fluorescence. Set-up: Agonists of Ca^2+ release in HT29 cells; endogenous in cells; host or cells: HT29 (human cell line, cultured per ATCC information). From the text:
(§1) The ability of the compounds of the present invention to activate PAR2 may be assessed via calcium mobilisation assays. It is appreciated that compounds that activate the release of intracellular calcium from one type of cell are agonists or partial agonists, while those that inhibit such release may be antagonists. […] The general assay protocols may vary slightly depending on the chosen cell line. In general, during cell culture passage, cell dissociation solution (CDS, Sigma Aldrich) is used to replace trypsin to dissociate cells from surface. Lipopolysaccharide (LPS) and trypsin are purchased from Sigma Aldrich. […] ELISA sets are purchased from BD Pharmingen (San Jose, Calif.) and cytokine array kits are purchased from RayBiotecho (Norcross, Ga.).
(§2) Cells are seeded overnight in 96-well black walled, clear bottomed, plate at approximately 2×10^4 to 4×10^5 cells per well. […] The cells are then washed twice with HBSS and transferred to a Polarstar spectrotluorimeter (BMG, Durham N.C.).
HBSS is prepared in-house and all other reagents are purchased from Invitrogen, Carlsbad. Plates are supplied by DKSH, Zurich. Calcimycin (A23187, Invitrogen) is used to measure maximum fluorescence, with individual results normalized accordingly.
Three different concentrations of 6 added to HT29 cells at room temperature. Duplicate measurements were made for each data point, accordingly, each data point represents mean±SEM. Net changes in fluorescence were calculated as a percentage relative to the maximum response given by 100 μM of the PAR2 agonist 2f-LIGRLO-NH2.
(In general: Calcium flux is commonly read through the fluorescence of an indicator in the cells.)
The term EC50 denotes the midpoint of the concentration-response curve. Consider `CC[C@H](C)[C@H](NC(=O)[C@H](CC1CCCCC1)NC(=O)c1ccno1)C(=O)N1CCC2(CC1)OC(=O)c1ccccc12` [Compound 14], for which the EC50 is 1.3 µM.
On the same count and under the same terms, the same measure for `CC[C@H](C)[C@H](NC(=O)[C@H](CC1CCCCC1)NC(=O)c1ccno1)C(=O)N1CCC2(CC1)CC(=O)c1ccccc1O2` [Compound 15]: 0.76 µM.

The same assay, now with this note: Fluo-3 fluorescence, read-out: EC50, agonist or partial agonist of Ca2+ release in HT29 cells.
For `CC[C@H](C)[C@H](NC(=O)[C@H](CC1CCCCC1)NC(=O)c1ccno1)C(=O)NCc1ccccc1` [Compound 3], the EC50 stood at 30 µM.
On the same count and under the same terms, next, `CC[C@H](C)[C@H](NC(=O)[C@H](CC1CCCCC1)NC(=O)c1ccno1)C(=O)NCc1ccc(OC)cc1` [Compound 4]: 10 µM; `CC[C@H](C)[C@H](NC(=O)[C@H](CC1CCCCC1)NC(=O)c1ccno1)C(=O)NCc1ccccc1Cl` [Compound 5]: 10 µM.
With `CC[C@H](C)[C@H](NC(=O)[C@H](CC1CCCCC1)NC(=O)c1ccno1)C(=O)NCc1ccccc1F` [Compound 6, 5-isoxazoyl-Cha-Ile-aminomethyl-(2-fluoro)phenyl], the EC50 was ~30 µM and 30 µM.
`CC[C@H](C)[C@H](NC(=O)[C@H](CC1CCCCC1)NC(=O)c1ccno1)C(=O)NCc1cccc(F)c1` [Compound 7]: the EC50 stood at 40 µM.
Consider `CC[C@H](C)[C@H](NC(=O)[C@H](CC1CCCCC1)NC(=O)c1ccno1)C(=O)NCc1ccc(F)cc1` [Compound 8], for which the 50% effective concentration (EC50) is 40 µM.
In the case of `CC[C@H](C)[C@H](NC(=O)[C@H](CC1CCCCC1)NC(=O)c1ccno1)C(=O)NCc1ccccc1[N+](=O)[O-]` [Compound 9], the 50% effective concentration (EC50) turned out to be 10 µM.
Turning to `CC[C@H](C)[C@H](NC(=O)[C@H](CC1CCCCC1)NC(=O)c1ccno1)C(=O)N1CCN(c2ccc(F)cc2)CC1` [Compound 10], the concentration for a half-maximal effect (EC50) came to 10 µM.
On to `CC[C@H](C)[C@H](NC(=O)[C@H](CC1CCCCC1)NC(=O)c1ccno1)C(=O)N1CCc2cc(OC)c(OC)cc2C1` [Compound 11], for which the EC50 is 5 to 10 µM.
As to `CC[C@H](C)[C@H](NC(=O)[C@H](CC1CCCCC1)NC(=O)c1ccno1)C(=O)N1CCC(NC(C)=O)(c2ccccc2)CC1` [Compound 12], the EC50 fell in the range of 1 to 6 µM.
For `CC[C@H](C)[C@H](NC(=O)[C@H](CC1CCCCC1)NC(=O)c1ccno1)C(=O)N1CCC2(CC1)CN(S(C)(=O)=O)c1ccccc12` [Compound 13], the EC50 came out at 1.8 µM.
As to `CC[C@H](C)[C@H](NC(=O)[C@H](CC1CCCCC1)NC(=O)c1ccno1)C(=O)N1CCC2(CC1)c1ccccc1C(O)C2O` (some centres unmarked) [Compound 16], the half-maximal effective concentration (EC50) lay in the range of 5 to 7 µM.
With `CC[C@H](C)[C@H](NC(=O)[C@H](CC1CCCCC1)NC(=O)c1ccno1)C(=O)N1CCC2(CC1)c1ccccc1C(NCc1ccc(F)cc1)C2O` (some centres unmarked) [Compound 17], the 50% effective concentration (EC50) turned out to be 20 µM.

Still in this assay, the particulars now being: HT-29, compound at 30 μM, room temperature, read-out: Response relative to the maximum response given by 100 μM 2f-LIGRLO-NH2.
Turning to `CC[C@H](C)[C@H](NC(=O)[C@H](CC1CCCCC1)NC(=O)c1ccno1)C(=O)NCc1ccccc1F` [Compound 6, 5-isoxazoyl-Cha-Ile-aminomethyl-(2-fluoro)phenyl], the Emax at 30 µM is ≤ 50%.

In the next assay the target is T1, PAR2. Description: PAR2 agonist inhibition (antagonism) by intracellular Ca2+ release in HT29 cells. It counts as cell-based. Set-up: Agonists of Ca^2+ release in HT29 cells; endogenous in cells; host or cells: HT29 (human cell line, cultured per ATCC information).
Conditions: not given
Description: as §1, §2
The cells are prepared as outlined above then treated with the “putative” antagonist 30 min prior to the addition of either trypsin or a synthetic agonist at a concentration equal to the agonists ED80.
The cells were then treated with 1 μM of the PAR2 agonist 2f-LIGRLO-NH2 (FIG. 2A. n=5) or 100 nM Trypsin (FIG. 2B, n=1). Each data point represents mean±SEM. Net changes in fluorescence were calculated as a percentage relative to the maximum response given 1 μM 2f-LIGRLO-NH2 or 100 nM Trypsin. Changes in fluorescence (% response) were plotted against logarithmic compound concentrations. The half maximal inhibitory concentration (IC50) values were derived from the dose response curve using a nonlinear regression curve in Graphpad Prism v5.
In general, IC50 refers to the concentration needed to halve the response being measured. Regarding `CCC(C)Oc1ccccc1CNC(=O)[C@@H](NC(=O)[C@H](CC1CCCCC1)NC(=O)c1ccno1)[C@@H](C)CC` (some centres unmarked) [Compound 25], the IC50 was 1.6 ± 0.4 µM.

The same assay, now with this note: HT29 cells; 30 min pre-incubation, then PAR2 agonist (1 μM 2f-LIGRLO-NH2); read-out: IC50, inhibition of Ca2+ release in HT29 cells.
In the case of `CC[C@H](C)[C@H](NC(=O)[C@H](CC1CCCCC1)NC(=O)c1ccno1)C(=O)NCc1cccc(OC)c1` [Compound 19], the half-inhibitory concentration (IC50) is 0.5 ± 0.1 µM.
Take `CC[C@H](C)[C@H](NC(=O)[C@H](CC1CCCCC1)NC(=O)c1ccno1)C(=O)NCc1ccccc1C` [Compound 20]: the IC50 is 0.5 ± 0.1 µM.
On the same count and under the same terms, the same measure for `CCOc1ccccc1CNC(=O)[C@@H](NC(=O)[C@H](CC1CCCCC1)NC(=O)c1ccno1)[C@@H](C)CC` [Compound 21]: 0.7 ± 0.1 µM; for `CCCOc1ccccc1CNC(=O)[C@@H](NC(=O)[C@H](CC1CCCCC1)NC(=O)c1ccno1)[C@@H](C)CC` [Compound 22]: 2 µM.
For `CCCCOc1ccccc1CNC(=O)[C@@H](NC(=O)[C@H](CC1CCCCC1)NC(=O)c1ccno1)[C@@H](C)CC` [Compound 23], the IC50 was 40 µM.
Take `CC[C@H](C)[C@H](NC(=O)[C@H](CC1CCCCC1)NC(=O)c1ccno1)C(=O)NCc1ccccc1OC(C)C` [Compound 24, 5-isoxazoyl-Cha-Ile-aminomethyl-(2-isopropoxy)phenyl]: the half-maximal inhibitory concentration (IC50) is 1.3 ± 0.1 µM.
Still for that read-out and setting: the same measure for `CC[C@H](C)[C@H](NC(=O)[C@H](CC1CCCCC1)NC(=O)c1ccno1)C(=O)NCc1cccc2c1OCO2` [Compound 26, 5-isoxazoyl-Cha-Ile-aminomethyl-(1,3-dioxalane)phenyl]: 0.4 ± 0.1 µM; for `CC[C@H](C)[C@H](NC(=O)[C@H](CC1CCCCC1)NC(=O)c1ccno1)C(=O)NCc1ccc(Cl)c(Cl)c1` [Compound 27, 5-isoxazoyl-Cha-Ile-aminomethyl-(3,4-dichloro)phenyl]: 1.4 ± 0.8 µM; for `CC[C@H](C)[C@H](NC(=O)[C@H](CC1CCCCC1)NC(=O)c1ccno1)C(=O)NCc1ccccc1C(F)(F)F` [Compound 28]: 1 to 2 µM.
The same measure, in the same setting: the same measure for `CC[C@H](C)[C@H](NC(=O)[C@H](CC1CCCCC1)NC(=O)c1ccno1)C(=O)NCc1cccc(C(=O)N2CCC(NCCN)(C(=O)NCc3ccccc3)CC2)c1` [Compound 29]: 0.7 µM; for `CC[C@H](C)[C@H](NC(=O)[C@H](CC1CCCCC1)NC(=O)c1ccno1)C(=O)N1CCC(c2ccc(OC)cc2)CC1` [Compound 31]: 10 µM.
With `CC[C@H](C)[C@H](NC(=O)[C@H](CC1CCCCC1)NC(=O)c1ccno1)C(=O)N1CCC(c2cc(OC)ccc2OC)CC1` [Compound 32], the half-inhibitory concentration (IC50) lay in the range of 5 to 10 µM.
For `CC[C@H](C)[C@H](NC(=O)[C@H](CC1CCCCC1)NC(=O)c1ccno1)C(=O)N1CCC(c2ccccc2C(F)(F)F)CC1` [Compound 33], the IC50 came out at 10 µM.
The same measure, in the same setting: the same measure for `CC[C@H](C)[C@H](NC(=O)[C@H](CC1CCCCC1)NC(=O)c1ccno1)C(=O)N1CCC(c2ccccc2-c2ccccc2)CC1` [Compound 34]: 25 µM; for `CC[C@H](C)[C@H](NC(=O)[C@H](CC1CCCCC1)NC(=O)c1ccno1)C(=O)N1CCC(Cc2ccccc2)CC1` [Compound 35]: 8 µM.
As for `CC[C@H](C)[C@H](NC(=O)[C@H](CC1CCCCC1)NC(=O)c1ccno1)C(=O)N1CCCC[C@H]1C(=O)NC(C)(C)C` [Compound 36], the IC50 worked out at 8.6 ± 2.6 µM.
The same measure, in the same setting: next, `CC[C@H](C)[C@H](NC(=O)[C@H](CC1CCCCC1)NC(=O)c1ccno1)C(=O)N1CCC2(CCc3ccccc3O2)CC1` [Compound 37, 5-isoxazoyl-Cha-Ile-spiro[chroman-2,4′-piperidine]]: 5 to 10 µM; `CC[C@H](C)[C@H](NC(=O)[C@H](CC1CCCCC1)NC(=O)c1ccno1)C(=O)N1CCCC(Nc2cccc(C(F)(F)F)c2)C1` (some centres unmarked) [Compound 38]: 6 µM; `CC[C@H](C)[C@H](NC(=O)[C@H](CC1CCCCC1)NC(=O)c1ccno1)C(=O)N(C)Cc1ccccc1OC` [Compound 39, 5-isoxazoyl-Cha-Ile-aminodimethyl-(2-methoxy)phenyl]: 6.4 µM.
Consider `COc1ccccc1CNC(=O)[C@@H](NC(=O)[C@H](CC1CCCCC1)NC(=O)c1ccno1)[C@@H](C)OC` [Compound 40, 5-isoxazoyl-Cha-Thr(Me)-aminomethyl-(2-methoxy)phenyl], for which the IC50 stood at 1.3 µM.
On to `CC[C@H](C)[C@H](NC(=O)[C@H](CC1CCOCC1)NC(=O)c1ccno1)C(=O)N1CCC2(C=Cc3ccccc32)CC1` [Compound 43], for which the 50% inhibitory concentration (IC50) is 60 µM.
